In brackets after ≈: the same amount, converted by molar mass. Like-named read-outs stand apart in the source and are kept apart here.
Assays:
Septoria tritici (St) = assay: Growth inhibition assay of fungal pathogens, St; assay type: cell-based; conditions: Zymoseptoria tritici, 48 h
Procedure, shortened: (§1)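 Read-out: OD600 plus visual rating at 24 and 48 h, blank (media + 2% DMSO) subtracted. Percent inhibition was derived at 48 h versus the 2% DMSO control. Spores were grown in 17% V8 broth with compound at 50/10/2 or 2/0.4/0.08 ppm final.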

C. parapsilosis = assay: Antifungal Activity Assay (broth microtiter MIC), C. parapsilosis; assay type: cell-based, Candida parapsilosis; conditions: Lodderomyces parapsilosis, ATCC22019, 48 h
Procedure, shortened: (§2)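 Colonies from 24 h Sabouraud dextrose agar plates (35° C) are suspended in RPMI 1640+MOPS and diluted to give 2.5×10^3 CFU/mL in the wells. Plates are set up per CLSI M27-A3. Visual MIC is recorded at 48 h.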

C. krusei = assay: Antifungal Activity Assay (broth microtiter MIC), C. krusei; assay type: cell-based, Candida krusei; conditions: Pichia kudriavzevii, ATCC6258, 48 h
Procedure, shortened: as §2

[1] = tested on: Phytophthora capsici (Pc); assay: Growth inhibition assay of fungal pathogens, Pc; assay type: cell-based; conditions: 48 h
Procedure, shortened: as §1

[2] = tested on: Fusarium moniliforme (Fm); assay: Growth inhibition assay of fungal pathogens, Fm; assay type: cell-based; conditions: for IC90: Fusarium verticillioides, 48 h, read-out: Concentration at 90% Inhibition Fm
Procedure, shortened: as §1

[3] = tested on: Collectotrichum graminicola (Cg); assay: Growth inhibition assay of fungal pathogens, Cg; assay type: cell-based; conditions: 48 h
Procedure, shortened: as §1

human (hACC2) = human (hACC2) (Homo sapiens, UniProt O00763); assay: In vitro ACC inhibition assay (ADP-Glo), hACC2; assay type: biochemical; conditions: 5 nM ACC2, 20 μM ATP, 20 μM acetyl-CoA
Chain of human (hACC2) (O00763 whole entry): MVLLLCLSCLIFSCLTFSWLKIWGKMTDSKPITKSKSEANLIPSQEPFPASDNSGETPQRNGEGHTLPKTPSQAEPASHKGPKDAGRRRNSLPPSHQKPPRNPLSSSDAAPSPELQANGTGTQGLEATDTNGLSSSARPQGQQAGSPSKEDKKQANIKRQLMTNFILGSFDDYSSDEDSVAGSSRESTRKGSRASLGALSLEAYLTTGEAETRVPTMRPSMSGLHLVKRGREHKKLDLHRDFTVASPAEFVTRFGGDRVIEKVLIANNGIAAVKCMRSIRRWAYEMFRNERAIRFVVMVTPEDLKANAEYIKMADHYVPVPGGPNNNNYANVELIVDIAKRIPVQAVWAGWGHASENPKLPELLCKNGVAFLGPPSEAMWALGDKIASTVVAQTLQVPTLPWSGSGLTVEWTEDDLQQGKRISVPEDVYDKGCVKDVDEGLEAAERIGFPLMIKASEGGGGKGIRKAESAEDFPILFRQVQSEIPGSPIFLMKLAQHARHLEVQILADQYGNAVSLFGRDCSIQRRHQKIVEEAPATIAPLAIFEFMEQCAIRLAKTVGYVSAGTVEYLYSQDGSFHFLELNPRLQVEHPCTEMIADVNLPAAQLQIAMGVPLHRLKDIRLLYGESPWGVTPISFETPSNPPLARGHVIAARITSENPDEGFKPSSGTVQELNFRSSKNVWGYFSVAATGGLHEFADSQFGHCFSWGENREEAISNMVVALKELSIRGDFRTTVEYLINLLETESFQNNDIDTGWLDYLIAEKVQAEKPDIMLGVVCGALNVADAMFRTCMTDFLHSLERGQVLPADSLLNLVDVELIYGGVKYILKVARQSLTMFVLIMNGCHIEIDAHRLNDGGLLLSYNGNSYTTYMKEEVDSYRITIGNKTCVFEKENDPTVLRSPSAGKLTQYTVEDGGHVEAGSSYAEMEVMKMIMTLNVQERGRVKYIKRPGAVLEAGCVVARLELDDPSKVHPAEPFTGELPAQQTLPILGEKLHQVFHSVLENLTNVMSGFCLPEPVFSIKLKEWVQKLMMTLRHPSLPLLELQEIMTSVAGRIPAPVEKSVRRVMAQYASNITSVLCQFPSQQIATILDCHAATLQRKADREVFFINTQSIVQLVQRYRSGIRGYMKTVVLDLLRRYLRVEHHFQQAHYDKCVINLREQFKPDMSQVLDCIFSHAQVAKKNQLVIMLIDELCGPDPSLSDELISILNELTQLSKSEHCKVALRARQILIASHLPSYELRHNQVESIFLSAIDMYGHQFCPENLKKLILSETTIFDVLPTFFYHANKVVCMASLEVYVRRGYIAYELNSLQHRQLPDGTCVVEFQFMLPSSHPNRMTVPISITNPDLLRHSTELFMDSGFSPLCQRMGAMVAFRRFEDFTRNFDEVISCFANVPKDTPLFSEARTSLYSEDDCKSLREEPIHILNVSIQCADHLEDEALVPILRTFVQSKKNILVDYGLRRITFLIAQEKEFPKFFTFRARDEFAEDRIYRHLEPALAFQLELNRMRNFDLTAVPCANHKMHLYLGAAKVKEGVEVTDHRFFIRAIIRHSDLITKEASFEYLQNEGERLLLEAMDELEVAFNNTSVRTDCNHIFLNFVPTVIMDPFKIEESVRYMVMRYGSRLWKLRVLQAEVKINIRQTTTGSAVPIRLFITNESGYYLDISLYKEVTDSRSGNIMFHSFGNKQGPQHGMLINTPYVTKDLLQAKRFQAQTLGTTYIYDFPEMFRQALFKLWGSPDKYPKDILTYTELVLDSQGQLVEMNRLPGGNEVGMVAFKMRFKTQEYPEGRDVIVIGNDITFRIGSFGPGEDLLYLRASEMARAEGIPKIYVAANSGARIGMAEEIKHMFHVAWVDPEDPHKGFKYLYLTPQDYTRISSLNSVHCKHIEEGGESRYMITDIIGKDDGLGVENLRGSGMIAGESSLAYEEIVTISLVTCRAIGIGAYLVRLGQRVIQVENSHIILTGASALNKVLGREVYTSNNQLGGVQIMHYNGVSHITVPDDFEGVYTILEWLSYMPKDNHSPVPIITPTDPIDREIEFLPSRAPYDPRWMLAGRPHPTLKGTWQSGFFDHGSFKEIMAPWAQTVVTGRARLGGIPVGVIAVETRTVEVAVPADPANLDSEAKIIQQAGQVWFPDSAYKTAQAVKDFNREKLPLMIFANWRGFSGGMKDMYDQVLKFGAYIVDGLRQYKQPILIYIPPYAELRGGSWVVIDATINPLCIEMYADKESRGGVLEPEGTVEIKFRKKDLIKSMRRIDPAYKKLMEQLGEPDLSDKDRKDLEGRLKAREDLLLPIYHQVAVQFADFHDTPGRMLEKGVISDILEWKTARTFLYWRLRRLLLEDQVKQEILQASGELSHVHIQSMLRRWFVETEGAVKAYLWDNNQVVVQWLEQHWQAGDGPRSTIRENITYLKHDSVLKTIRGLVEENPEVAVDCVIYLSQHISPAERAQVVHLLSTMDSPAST
Method: The detailed procedure is as follows. […] 10 μL ADP glo reagent was added. […] 20 μL kinase detection reagent was added.

[4] = tested on: Fusarium virguliforme (Fv); assay: Growth inhibition assay of fungal pathogens, Fv; assay type: cell-based; conditions: 48 h
Procedure, shortened: as §1

Rhizoctonia solani (Rs) = assay: Growth inhibition assay of fungal pathogens, Rs; assay type: cell-based; conditions: 48 h
fungal (fACC2) = fungal (fACC2) (UniProt Q00955); conditions: read-out: fACC2 (in vitro ACC2 Inhibition Assay, IC50), ADP-Glo, 5 nM ACC2, 20 μM ATP, 20 μM acetyl-CoA
Chain of fungal (fACC2) (Q00955 whole entry): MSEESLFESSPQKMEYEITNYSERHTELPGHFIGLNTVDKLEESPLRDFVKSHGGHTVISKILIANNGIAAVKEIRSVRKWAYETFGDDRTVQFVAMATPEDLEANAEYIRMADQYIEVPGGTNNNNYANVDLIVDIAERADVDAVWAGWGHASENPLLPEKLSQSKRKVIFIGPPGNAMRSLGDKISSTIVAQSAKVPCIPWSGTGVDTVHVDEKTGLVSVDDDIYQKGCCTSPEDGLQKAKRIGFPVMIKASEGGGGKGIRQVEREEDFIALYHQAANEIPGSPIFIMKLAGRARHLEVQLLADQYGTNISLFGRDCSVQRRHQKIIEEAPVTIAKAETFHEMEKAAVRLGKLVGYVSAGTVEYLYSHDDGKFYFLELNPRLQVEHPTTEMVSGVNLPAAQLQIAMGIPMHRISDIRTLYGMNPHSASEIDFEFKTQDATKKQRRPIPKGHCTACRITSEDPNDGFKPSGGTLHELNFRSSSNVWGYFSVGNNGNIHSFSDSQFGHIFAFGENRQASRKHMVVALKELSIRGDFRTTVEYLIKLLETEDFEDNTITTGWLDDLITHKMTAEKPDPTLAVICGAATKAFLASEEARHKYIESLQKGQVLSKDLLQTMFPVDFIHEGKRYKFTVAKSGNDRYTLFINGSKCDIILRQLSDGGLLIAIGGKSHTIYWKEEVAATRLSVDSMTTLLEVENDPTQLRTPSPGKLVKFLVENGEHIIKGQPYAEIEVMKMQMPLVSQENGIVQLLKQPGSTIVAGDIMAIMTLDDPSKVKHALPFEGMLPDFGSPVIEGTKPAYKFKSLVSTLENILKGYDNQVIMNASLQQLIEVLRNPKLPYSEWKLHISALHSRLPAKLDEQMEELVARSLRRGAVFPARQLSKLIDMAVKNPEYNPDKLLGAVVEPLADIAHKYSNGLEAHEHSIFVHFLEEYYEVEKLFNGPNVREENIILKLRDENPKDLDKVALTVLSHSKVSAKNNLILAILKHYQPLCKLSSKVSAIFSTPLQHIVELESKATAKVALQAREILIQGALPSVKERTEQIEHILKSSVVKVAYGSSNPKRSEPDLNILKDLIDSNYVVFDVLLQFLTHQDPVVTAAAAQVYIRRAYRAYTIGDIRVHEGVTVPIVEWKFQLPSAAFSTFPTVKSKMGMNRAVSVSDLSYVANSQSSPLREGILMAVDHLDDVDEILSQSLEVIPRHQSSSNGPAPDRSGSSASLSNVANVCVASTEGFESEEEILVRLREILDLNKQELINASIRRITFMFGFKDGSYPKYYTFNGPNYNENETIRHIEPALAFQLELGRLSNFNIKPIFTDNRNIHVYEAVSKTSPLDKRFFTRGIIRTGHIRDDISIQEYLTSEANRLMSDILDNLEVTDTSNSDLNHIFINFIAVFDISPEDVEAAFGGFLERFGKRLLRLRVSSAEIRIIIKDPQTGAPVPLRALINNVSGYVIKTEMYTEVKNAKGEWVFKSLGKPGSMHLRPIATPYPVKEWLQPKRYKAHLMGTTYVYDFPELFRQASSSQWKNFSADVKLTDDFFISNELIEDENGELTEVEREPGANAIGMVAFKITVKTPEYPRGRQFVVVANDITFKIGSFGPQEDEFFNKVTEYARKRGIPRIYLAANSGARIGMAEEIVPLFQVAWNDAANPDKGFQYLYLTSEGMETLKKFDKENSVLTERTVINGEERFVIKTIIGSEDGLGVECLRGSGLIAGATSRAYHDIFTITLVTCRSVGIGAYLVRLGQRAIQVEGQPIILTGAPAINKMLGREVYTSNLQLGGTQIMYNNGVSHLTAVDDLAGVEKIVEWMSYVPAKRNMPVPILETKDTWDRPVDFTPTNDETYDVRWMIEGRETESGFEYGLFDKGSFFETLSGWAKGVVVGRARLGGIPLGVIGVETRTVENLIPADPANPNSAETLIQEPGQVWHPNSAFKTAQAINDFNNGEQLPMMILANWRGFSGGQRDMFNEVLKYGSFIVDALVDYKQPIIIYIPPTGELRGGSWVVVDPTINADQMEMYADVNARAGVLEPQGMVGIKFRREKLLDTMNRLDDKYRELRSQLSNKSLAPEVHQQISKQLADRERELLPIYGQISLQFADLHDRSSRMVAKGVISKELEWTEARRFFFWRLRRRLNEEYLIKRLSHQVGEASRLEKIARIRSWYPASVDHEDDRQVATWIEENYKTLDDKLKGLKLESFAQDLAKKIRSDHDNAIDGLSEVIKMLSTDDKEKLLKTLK

[5] = Septoria tritici, growth inhibition at 48 hours vs 2% DMSO control, read-out: Concentration at 90% Inhibition St
[6] = Septoria tritici, growth inhibition vs 2% DMSO control at 48 hours, read-out: Concentration at 90% Inhibition St
[7] = Table 3a, ATCC 22019, 3 replicates, MIC recorded at 48 h, read-out: MIC, C. parapsilosis ATCC 22019
[8] = Table 3b (additional results), ATCC 22019, 3 replicates, MIC recorded at 48 h, read-out: MIC, C. parapsilosis ATCC 22019
[9] = Table 3a, ATCC 6258, 3 replicates, MIC recorded at 48 h, read-out: MIC, C. krusei ATCC 6258
[10] = Table 3b (additional results), ATCC 6258, 3 replicates, MIC recorded at 48 h, read-out: MIC, C. krusei ATCC 6258
[11] = growth inhibition at 48 hours vs 2% DMSO control, read-out: Concentration at 90% Inhibition Pc
[12] = growth inhibition vs 2% DMSO control at 48 hours, read-out: Concentration at 90% Inhibition Pc
[13] = Fusarium moniliforme, growth inhibition at 48 hours vs 2% DMSO control
[14] = Fusarium moniliforme, growth inhibition vs 2% DMSO control at 48 hours
[15] = Collectotrichum graminicola, growth inhibition at 48 hours vs 2% DMSO control, read-out: Concentration at 90% Inhibition Cg
[16] = Collectotrichum graminicola, growth inhibition vs 2% DMSO control at 48 hours, read-out: Concentration at 90% Inhibition Cg
[17] = growth inhibition at 48 hours vs 2% DMSO control, read-out: Concentration at 90% Inhibition Fv
[18] = growth inhibition vs 2% DMSO control at 48 hours, read-out: Concentration at 90% Inhibition Fv
[19] = mycelial plugs, growth inhibition at 48 hours vs 2% DMSO control, read-out: Concentration at 90% Inhibition Rs
[20] = mycelial plugs, growth inhibition vs 2% DMSO control at 48 hours, read-out: Concentration at 90% Inhibition Rs

Row | SMILES | IC90 (Septoria tritici (St); [5]) [µg/mL] | IC90 (Septoria tritici (St); [6]) [µg/mL] | MIC (C. parapsilosis; [7]) [µg/mL] | MIC (C. parapsilosis; [8]) [µg/mL] | MIC (C. krusei; [9]) [µg/mL] | MIC (C. krusei; [10]) [µg/mL] | IC90 [1, 11] [µg/mL] | IC90 [1, 12] [µg/mL] | IC90 [2, 13] [µg/mL] | IC90 [2, 14] [µg/mL] | IC90 [3, 15] [µg/mL] | IC90 [3, 16] [µg/mL] | IC50 (human (hACC2); Table 2a) [nM] | IC50 (human (hACC2); Table 2b, additional results) [nM] | IC90 [4, 17] [µg/mL] | IC90 [4, 18] [µg/mL] | IC90 (Rhizoctonia solani (Rs); [19]) [µg/mL] | IC90 (Rhizoctonia solani (Rs); [20]) [µg/mL] | IC50 (fungal (fACC2); Table 2a) [nM] | IC50 (fungal (fACC2); Table 2b, additional results) [nM] | further results
1 | COc1ccc(F)cc1[C@H](Cn1c(=O)n(C(C)(C)C(=O)NC2CCC2)c(=O)c2c(C)c(-n3nccn3)sc21)OC1CCOCC1 [Compound I-27, (R)—N-cyclobutyl-2-(1-(2-(5-fluoro-2-methoxyphenyl)-2-((tetrahydro-2H-pyran-4-yl)oxy)ethyl)-5-methyl-2,4-dioxo-6-(2H-1,2,3-triazol-2-yl)-1,4-dihydrothieno[2,3-d]pyrimidin-3(2H)-yl)-2-methylpropanamide] | 2 (≈ 3.12 µM) | 10 (≈ 15.6 µM) | 0.25 to 1 (≈ 0.39 to 1.56 µM) | 0.25 to 1 (≈ 0.39 to 1.56 µM) | 0.06 to 0.24 (≈ 0.0936 to 0.375 µM) | 0.06 to 0.249 (≈ 0.0936 to 0.389 µM) | 10 (≈ 15.6 µM) | > 50 | 0.08 (≈ 0.125 µM) | 0.08 (≈ 0.125 µM) | 0.4 (≈ 0.624 µM) | 0.4 (≈ 0.624 µM) | 5 to 10 | 5 to 10 | 0.4 (≈ 0.624 µM) | 0.4 (≈ 0.624 µM) | 0.08 (≈ 0.125 µM) | 0.08 (≈ 0.125 µM) | 1 to 5 | 1 to 5 | 
2 | CCO[C@@H](Cn1c(=O)n(C(C)(C)C(=O)N2CCCC2)c(=O)c2c(C)c(-n3nccn3)sc21)c1cc(F)ccc1OC [Compound I-42, (R)-1-(2-ethoxy-2-(5-fluoro-2-methoxyphenyl)ethyl)-5-methyl-3-(2-methyl-1-oxo-1-(pyrrolidin-1-yl)propan-2-yl)-6-(2H-1,2,3-triazol-2-yl)thieno[2,3-d]pyrimidine-2,4(1H,3H)-dione] | 2 (≈ 3.42 µM) | 10 (≈ 17.1 µM) | 1.1 to 2 (≈ 1.88 to 3.42 µM) | 1.01 to 2 (≈ 1.73 to 3.42 µM) | 0.25 to 1 (≈ 0.428 to 1.71 µM) | 1.01 to 2 (≈ 1.73 to 3.42 µM) | > 50 | > 50 | 0.08 (≈ 0.137 µM) | 0.08 (≈ 0.137 µM) | 0.08 (≈ 0.137 µM) | 0.08 (≈ 0.137 µM) | 5 to 10 | 5 to 10 | 0.08 (≈ 0.137 µM) | 0.08 (≈ 0.137 µM) | 0.4 (≈ 0.684 µM) | 0.4 (≈ 0.684 µM) | 1 to 5 | 1 to 5 | 
3 | COc1ccc(F)cc1[C@H](Cn1c(=O)n(C(C)(C)C(=O)N2CCCC2)c(=O)c2c(C)c(-n3nccn3)sc21)OC(C)C [Compound I-7, (R)-1-(2-(5-fluoro-2-methoxyphenyl)-2-isopropoxyethyl)-5-methyl-3-(2-methyl-1-oxo-1-(pyrrolidin-1-yl)propan-2-yl)-6-(2H-1,2,3-triazol-2-yl)thieno[2,3-d]pyrimidine-2,4(1H,3H)-dione] | 10 (≈ 16.7 µM) | > 50 | 1.1 to 2 (≈ 1.84 to 3.34 µM) | 1.01 to 2 (≈ 1.69 to 3.34 µM) | 0.25 to 1 (≈ 0.418 to 1.67 µM) | 0.25 to 1 (≈ 0.418 to 1.67 µM) | > 50 | > 50 | 0.08 (≈ 0.134 µM) | 0.08 (≈ 0.134 µM) | 0.08 (≈ 0.134 µM) | 0.08 (≈ 0.134 µM) | 5 to 10 | 5 to 10 | 0.08 (≈ 0.134 µM) | 0.08 (≈ 0.134 µM) | 0.08 (≈ 0.134 µM) | 0.08 (≈ 0.134 µM) | 1 to 5 | 1 to 5 | 
4 | COCCO[C@@H](Cn1c(=O)n(C(C)C(=O)N2CCCC2)c(=O)c2c(C)c(-n3nccn3)sc21)c1cc(F)ccc1OC (stereo partly drawn) [Compound I-64, 1-((R)-2-(5-fluoro-2-methoxyphenyl)-2-(2-methoxy-ethoxy)ethyl)-5-methyl-3-(1-oxo-1-(pyrrolidin-1-yl)propan-2-yl)-6-(2H-1,2,3-triazol-2-yl)thieno[2,3-d]pyrimidine-2,4(1H,3H)-dione] | > 50 | > 50 | 2.1 to 4 (≈ 3.5 to 6.66 µM) | 1.01 to 2 (≈ 1.68 to 3.33 µM) | 2.1 to 4 (≈ 3.5 to 6.66 µM) | 2.01 to 4 (≈ 3.35 to 6.66 µM) | > 50 | > 50 | 0.4 (≈ 0.666 µM) | 0.4 (≈ 0.666 µM) | 10 (≈ 16.6 µM) | > 50 | 10 to 40 | 10 to 40 | 0.4 (≈ 0.666 µM) | 0.4 (≈ 0.666 µM) | 2 (≈ 3.33 µM) | 2 (≈ 3.33 µM) | 1 to 5 | 1 to 5 | 
5 | COc1ccc(F)cc1[C@H](Cn1c(=O)n(C(C)(C)C(=O)N2CCCC2)c(=O)c2c(C)c(-n3nccn3)sc21)OCCN(C)C [Compound I-75, (R)-1-(2-(2-(dimethylamino)ethoxy)-2-(5-fluoro-2-methoxyphenyl)ethyl)-5-methyl-3-(2-methyl-1-oxo-1-(pyrrolidin-1-yl)propan-2-yl)-6-(2H-1,2,3-triazol-2-yl)thieno[2,3-d]pyrimidine-2,4(1H,3H)-dione] | > 50 | > 50 | 2.1 to 4 (≈ 3.35 to 6.37 µM) | 1.01 to 2 (≈ 1.61 to 3.19 µM) | 2.1 to 4 (≈ 3.35 to 6.37 µM) | 2.01 to 4 (≈ 3.2 to 6.37 µM) | > 50 | > 50 | > 50 | > 50 | > 50 | > 50 | > 40 | > 40 | > 50 | > 50 | > 50 | > 50 | 1 to 5 | 1 to 5 | 
6 | COc1ccc(F)cc1[C@H](Cn1c(=O)n(C(C)(C)C(=O)NC(C)C)c(=O)c2c(C)c(-n3nccn3)sc21)OCCN(C)C [Compound I-76, (R)-2-(1-(2-(2-(dimethylamino)ethoxy)-2-(5-fluoro-2-methoxyphenyl)ethyl)-5-methyl-2,4-dioxo-6-(2H-1,2,3-triazol-2-yl)-1,4-dihydro-thieno[2,3-d]pyrimidin-3(2H)-yl)-N-isopropyl-2-methylpropanamide] |  |  |  |  |  |  |  |  |  |  |  |  | > 40 | > 40 |  |  |  |  | 1 to 5 | 1 to 5 | IC90 (Septoria tritici (St); read-out: Concentration at 90% Inhibition St, Septoria tritici, growth inhibition at 48 hours vs 2% DMSO control): > 50 µg/mL; IC90 (Septoria tritici (St); read-out: Concentration at 90% Inhibition St, Septoria tritici, growth inhibition vs 2% DMSO control at 48 hours): > 50 µg/mL; MIC (C. parapsilosis; read-out: MIC, C. parapsilosis ATCC 22019, Table 3a, 3 replicates, MIC recorded at 48 h): 2.1 to 4 µg/mL (≈ 3.41 to 6.5 µM); MIC (C. parapsilosis; read-out: MIC, C. parapsilosis ATCC 22019, Table 3b (additional results), 3 replicates, MIC recorded at 48 h): 0.25 to 1 µg/mL (≈ 0.406 to 1.62 µM); MIC (C. krusei; read-out: MIC, C. krusei ATCC 6258, Table 3a, 3 replicates, MIC recorded at 48 h): 2.1 to 4 µg/mL (≈ 3.41 to 6.5 µM); MIC (C. krusei; read-out: MIC, C. krusei ATCC 6258, Table 3b (additional results), 3 replicates, MIC recorded at 48 h): 0.25 to 1 µg/mL (≈ 0.406 to 1.62 µM); IC90 ([1]; read-out: Concentration at 90% Inhibition Pc, Phytophthora capsici, growth inhibition at 48 hours vs 2% DMSO control): > 50 µg/mL; IC90 ([1]; read-out: Concentration at 90% Inhibition Pc, Phytophthora capsici, growth inhibition vs 2% DMSO control at 48 hours): > 50 µg/mL; Concentration at 90% Inhibition Fm [2, 13]: D (compound concentration of >50 ppm at 90% inhibition of fungal pathogens); IC90 [2]: > 50 µg/mL; IC90 ([3]; read-out: Concentration at 90% Inhibition Cg, Collectotrichum graminicola, growth inhibition at 48 hours vs 2% DMSO control): > 50 µg/mL; IC90 ([3]; read-out: Concentration at 90% Inhibition Cg, Collectotrichum graminicola, growth inhibition vs 2% DMSO control at 48 hours): > 50 µg/mL; IC90 ([4]; read-out: Concentration at 90% Inhibition Fv, Fusarium virguliforme, growth inhibition at 48 hours vs 2% DMSO control): > 50 µg/mL; IC90 ([4]; read-out: Concentration at 90% Inhibition Fv, Fusarium virguliforme, growth inhibition vs 2% DMSO control at 48 hours): > 50 µg/mL; IC90 (Rhizoctonia solani (Rs); read-out: Concentration at 90% Inhibition Rs, Rhizoctonia solani, mycelial plugs, growth inhibition at 48 hours vs 2% DMSO control): 10 µg/mL (≈ 16.2 µM); IC90 (Rhizoctonia solani (Rs); read-out: Concentration at 90% Inhibition Rs, Rhizoctonia solani, mycelial plugs, growth inhibition vs 2% DMSO control at 48 hours): > 50 µg/mL

— patent US10800791B2, “Triazole ACC inhibitors and uses thereof” (Gilead Apollo, LLC, priority 2015, dated 2020)
